According to patent publication US20200255492A1, “LEPTIN PEPTIDES AND THEIR USE FOR TREATING NEUROLOGICAL DISORDERS” (UNIVERSITY OF DUNDEE, priority 2017, published 2020):

Test system: mitochondria
Experiment: MitoRed analysis of mitochondrial morphology after 6-OHDA (cellular Parkinson's Disease model)
Type: cell-based
Conditions: 100 μM; 1 hour
Method: Cultures were established on 3 separate occasions in quadruplicate and stained with MitoRED to identify mitochondria after 1 hour of treatment. Statistical significance relative to untreated control is denoted with ** where P<0.01 and *** where P<0.001. Representative images of 100 μM 6-OHDA-treated MitoRED stained cultures (C) and 100 μM 6-OHDA and leptin116-130 co-treated MitoRED stained cultures are shown. Scale bar represents […].
The human neuroblastoma cell line, SH-SY5Y (ECACC, UK) was maintained in Dulbecco's Modified Eagle Medium supplemented with glucose ([…]) and 10% (v/v) cosmic calf serum (Fisher Scientific, UK) at 37° C. in a humidified atmosphere of 5% CO2, 95% air and allowed to reach 70-80% confluence before seeding. Cells (passage 10-18) were plated at 2×10^5 cells on 13 mm borosilicate class coverslips or at 10 000 cells per well in 96 well tissue culture plates (Nunc, VWR, UK) prior to treatment. Reagents used were (from Sigma UK unless stated) 1 nM human leptin, leptin (116-121), leptin (117-122) and leptin (117-125); 0.0001-1 nm murine leptin fragments leptin (116-121), leptin (117-122) and leptin (116-130); 100 μM 6-hydroxydopamine; 10 μM CuCl2; […] Aβ1-42.
Cells were treated with pre-warmed cell culture medium containing 1 μM MitoRed ((9-[2-(4′-Methylcoumarin-7′-oxycarbonyl)phenyl]-3,6-bis(diethylamino)xanthylium chloride) and returned to the incubator for 45 minutes. Following fixation in NBF for 15 minutes, cells were washed 3 times in PBS. Coverslips were mounted in fluorescence mountant onto microscope slides and imaged on the Zeiss Axio MR2 microscope. The mean mitochondrial area and index of fragmentation (number of mitochondria: total area of mitochondrial material) were calculated using Fiji.

NCCc1cc(O)c(O)cc1O [6-OHDA, 6-hydroxydopamine, reference compound]
cross-sectional area of individual mitochondria, 6-OHDA alone: increase in the cross-sectional area of individual mitochondria
mitochondrial fragmentation, 6-OHDA alone: decrease in mitochondrial fragmentation
